What was measured:
Format in all cases: in vivo
Veronica persica [1] = assay: Post-emergence herbicidal efficacy at 320 g/ha, VERPE; conditions: rated visually after about 3 weeks vs untreated controls, 100% = plants have died
From the text: (§1) Unwanted plants/weeds: • ABUTH: Abutilon theophrasti • ALOMY: Alopecurus myosuroides • AMARE: Amaranthus retroflexus • DIGSA: Digitaria sanguinalis • ECHCG: Echinochloa crus-galli • KCHSC: Kochia scoparia • LOLRI: Lolium rigidum • MATIN: Matricaria inodora • POAAN: Poa annua • POLCO: Polygonum convolvulus • SETVI: Setaria viridis • STEME: Stellaria media • VERPE: Veronica persica • VIOTR: Viola tricolor A. Post-Emergence Herbicidal Efficacy at 320 g/ha
(§2) Seeds of mono- and dicotyledonous weed plants were placed in plastic pots in sandy loam soil (doubly sown with in each case one species of mono- or dicotyledonous weed plants per pot), covered with soil and cultivated in a greenhouse under controlled growth conditions. 2 to 3 weeks after sowing, the test plants were treated at the one-leaf stage. The compounds of the invention, formulated in the form of wettable powders (WP) or as emulsion concentrates (EC), were applied to the green parts of the plants as aqueous suspension or emulsion with addition of 0.5% additive at a water application rate equivalent to 600 litres per hectare. After the test plants had been kept in the greenhouse under optimum growth conditions for about 3 weeks, the activity of the preparations was rated visually in comparison to untreated controls.
(§3) For example, 100% activity=the plants have died, 0% activity=like control plants.
(§4) Tables A1 to A10 below show the effects of selected compounds of the general formula (I) according to Table 1 on various harmful plants and at an application rate corresponding to 320 g/ha, which were obtained by the trial procedure specified above.

Amaranthus retroflexus [2] = assay: Post-emergence herbicidal efficacy at 320 g/ha, AMARE; conditions: rated visually after about 3 weeks vs untreated controls, 100% = plants have died
From the text: as §1, §2, §3, §4

Amaranthus retroflexus [3] = assay: Pre-emergence herbicide efficacy at 320 g/ha, AMARE; conditions: scored visually after about 3 weeks vs untreated controls, 100% = plants have died
From the text: as §1
(§5) Seeds of mono- and dicotyledonous weed plants were placed in plastic pots in sandy loam soil (doubly sown with one species each of mono- or dicotyledonous weed plants per pot) and covered with soil. The compounds of the invention, formulated in the form of wettable powders (WP) or as emulsion concentrates (EC), were then applied to the surface of the covering soil as aqueous suspension or emulsion with addition of 0.5% additive at a water application rate of 600 litres per hectare (converted). After the treatment, the pots were placed in a greenhouse and kept under good growth conditions for the test plants. After about 3 weeks, the efficacy of the preparations was scored visually in comparison with untreated controls as percentages.
as §3
(§6) Tables C1 to C12 below show the effects of selected compounds of the general formula (I) according to Table 1 on various harmful plants and at an application rate corresponding to 320 g/ha, which were obtained by the trial procedure specified above.

Kochia scoparia [4] = assay: Post-emergence herbicidal efficacy at 320 g/ha, KCHSC; conditions: rated visually after about 3 weeks vs untreated controls, 100% = plants have died
From the text: as §1, §2, §3, §4

Abutilon theophrasti = assay: Post-emergence herbicidal efficacy at 320 g/ha, ABUTH; conditions: rated visually after about 3 weeks vs untreated controls, 100% = plants have died
From the text: as §1, §2, §3, §4

Setaria viridis = assay: Pre-emergence herbicide efficacy at 320 g/ha, SETVI; conditions: scored visually after about 3 weeks vs untreated controls, 100% = plants have died
From the text: as §1, §5, §3, §6

Stellaria media [5] = assay: Post-emergence herbicidal efficacy at 320 g/ha, STEME; conditions: rated visually after about 3 weeks vs untreated controls, 100% = plants have died
From the text: as §1, §2, §3, §4

Stellaria media [6] = assay: Pre-emergence herbicide efficacy at 320 g/ha, STEME; conditions: scored visually after about 3 weeks vs untreated controls, 100% = plants have died
From the text: as §1, §5, §3, §6

Digitaria sanguinalis = assay: Pre-emergence herbicide efficacy at 320 g/ha, DIGSA; conditions: scored visually after about 3 weeks vs untreated controls, 100% = plants have died
From the text: as §1, §5, §3, §6

Kochia scoparia [7] = assay: Pre-emergence herbicide efficacy at 320 g/ha, KCHSC; conditions: scored visually after about 3 weeks vs untreated controls, 100% = plants have died
From the text: as §1, §5, §3, §6

Veronica persica [8] = assay: Pre-emergence herbicide efficacy at 320 g/ha, VERPE; conditions: scored visually after about 3 weeks vs untreated controls, 100% = plants have died
From the text: as §1, §5, §3, §6

Compound	Post-emergence efficacy at 320 g/ha against VERPE in % (Veronica persica [1]) [%]	Post-emergence efficacy at 320 g/ha against AMARE in % (Amaranthus retroflexus [2]) [%]	Pre-emergence efficacy at 320 g/ha against AMARE in % (Amaranthus retroflexus [3]) [%]	Post-emergence efficacy at 320 g/ha against KCHSC in % (Kochia scoparia [4]) [%]	further results
Fc1cnc(Nc2ccccc2CCCC(F)(F)F)nc1 [Example 1-3]	90	90			
N#Cc1cccc(Nc2ccc(Cl)cn2)c1-n1cc(C(F)(F)F)cn1 [Example 1-59]	100	90	90	90	
O=S(=O)(CCCC(F)(F)F)Oc1c(F)cccc1Nc1ncc(Cl)cn1 [Example 1-14]	90	90	90		
N#Cc1cccc(Nc2ccc(F)cn2)c1-n1cc(C(F)(F)F)cn1 [Example 1-52]	90	90	90		
COCc1cnn(-c2c(C#N)cccc2Nc2ncc(F)cn2)c1 [Example 1-69]	100	100	100		Post-emergence efficacy at 320 g/ha against ABUTH in % (Abutilon theophrasti): 90%; Pre-emergence efficacy at 320 g/ha against SETVI in % (Setaria viridis): 90%; Post-emergence efficacy at 320 g/ha against STEME in % (Stellaria media [5]): 100%; Pre-emergence efficacy at 320 g/ha against STEME in % (Stellaria media [6]): 100%
N#Cc1ccc(Nc2cccc(C#N)c2-n2cc(C(F)(F)F)cn2)nc1 [Example 1-58]	90	90			
FC(F)(F)CCCc1ccccc1Nc1ncc(Cl)cn1 [Example 1-1]	90	90	90		Post-emergence efficacy at 320 g/ha against ABUTH in % (Abutilon theophrasti): 90%; Pre-emergence efficacy at 320 g/ha against SETVI in % (Setaria viridis): 90%
N#Cc1cccc(Nc2ncc(Cl)cc2F)c1-n1cc(C(F)(F)F)cn1 [Example 1-54]	100	100		90	
Cc1ccc(Nc2ncc(F)cn2)c(-n2cc(C(F)(F)F)cn2)c1C#N [Example 1-46]	90	90			Pre-emergence efficacy at 320 g/ha against DIGSA in % (Digitaria sanguinalis): 90%
O=S(=O)(CCCC(F)(F)F)Oc1c(F)cccc1Nc1ncc(F)cn1 [Example 1-15]	90	90			
N#Cc1cccc(Nc2ncc(Cl)cn2)c1-n1cccn1 [Example 1-64]	90	100	100	100	Pre-emergence efficacy at 320 g/ha against SETVI in % (Setaria viridis): 100%; Post-emergence efficacy at 320 g/ha against STEME in % (Stellaria media [5]): 90%; Pre-emergence efficacy at 320 g/ha against DIGSA in % (Digitaria sanguinalis): 90%; Pre-emergence efficacy at 320 g/ha against KCHSC in % (Kochia scoparia [7]): 90%
FC(F)(F)c1cnn(-c2ccccc2Nc2ncc(Cl)cn2)c1 [Example 1-78]	90		100		Pre-emergence efficacy at 320 g/ha against SETVI in % (Setaria viridis): 90%; Post-emergence efficacy at 320 g/ha against STEME in % (Stellaria media [5]): 90%
Cc1cc(C)c(-c2cc(C(F)F)no2)c(Nc2ncc(Cl)cn2)n1 [Example 2-4]				90	Post-emergence efficacy at 320 g/ha against STEME in % (Stellaria media [5]): 100%; Pre-emergence efficacy at 320 g/ha against STEME in % (Stellaria media [6]): 90%
N#Cc1cccc(Nc2ncc(Cl)cn2)c1-n1cc(Br)cn1 [Example 1-73]	90	100		90	
Fc1cnc(Nc2ccccc2SCCCC(F)(F)F)nc1 [Example 1-7]	100	100	90	90	Post-emergence efficacy at 320 g/ha against ABUTH in % (Abutilon theophrasti): 90%; Post-emergence efficacy at 320 g/ha against STEME in % (Stellaria media [5]): 90%
Fc1cccc(Nc2ccc(Cl)cn2)c1-c1cc(C(F)F)no1 [Example 1-56]	90	90			
Fc1cc(Cl)cnc1Nc1cccc(F)c1-c1cc(C(F)F)no1 [Example 1-57]				90	
FC(F)(F)CCCSc1ccccc1Nc1ncc(Cl)cn1 [Example 1-4]		90			
O=S(=O)(CCC(F)(F)F)Oc1c(F)cccc1Nc1ncc(F)cn1 [Example 1-17]		90			
Fc1ccc(-c2ccccc2Nc2ncc(Cl)cn2)cc1F [Example 1-28]	100	100			
N#Cc1cccc(Nc2ncc(C(F)(F)F)cn2)c1-n1cc(C(F)(F)F)cn1 [Example 1-41]	90				
Cc1ccc(Nc2ncc(Cl)cn2)c(-n2cc(C(F)(F)F)cn2)c1C#N [Example 1-45]					Pre-emergence efficacy at 320 g/ha against STEME in % (Stellaria media [6]): 100%
FC(F)(F)CCCc1ccccc1Nc1ccc(Cl)cn1 [Example 1-70]	90	100			
Cc1cc(C)c(-c2cc(C(F)F)no2)c(Nc2ccc(Cl)cn2)n1 [Example 2-7]	90				
N#Cc1cccc(Nc2ncc(Cl)cn2)c1-n1cc(Cl)cn1 [Example 1-72]	90	100	100	90	Pre-emergence efficacy at 320 g/ha against VERPE in % (Veronica persica [8]): 90%; Pre-emergence efficacy at 320 g/ha against SETVI in % (Setaria viridis): 90%; Pre-emergence efficacy at 320 g/ha against DIGSA in % (Digitaria sanguinalis): 90%; Pre-emergence efficacy at 320 g/ha against KCHSC in % (Kochia scoparia [7]): 90%
O=S(=O)(CCC(F)(F)F)Oc1c(F)cccc1Nc1ncc(Cl)cn1 [Example 1-16]	90		90		
N#Cc1cc(Cl)cnc1Nc1ccccc1CCCCC(F)(F)F [Example 1-76]	90	90			
N#Cc1cc(Cl)cnc1Nc1cccc(C#N)c1-n1cc(C(F)(F)F)cn1 [Example 1-55]	100	100	100	90	
Clc1ccc(-c2ccccc2Nc2ncc(Cl)cn2)cc1 [Example 1-25]	90				Post-emergence efficacy at 320 g/ha against STEME in % (Stellaria media [5]): 100%

— US20250311727A1, “SUBSTITUTED 2-AMINOAZINES AND SALTS THEREOF, AND USE THEREOF AS HERBICIDAL ACTIVE SUBSTANCES” (BAYER AKTIENGESELLSCHAFT, priority 2022, published 2025)
